According to patent US20090264306A1, “DNA METHYLATION BIOMARKERS IN LYMPHOID AND HEMATOPOIETIC MALIGNANCIES” (Curators of the University of Missouri, priority 2005, published 2009):

Tested on: NHL lines RL, Daudi, DB, Raji, Granta 519 and Mec-1
Experiment: Reactivation of methylated genes by DAC and TSA in NHL cell lines, real time RT-PCR
Format: cell-based, Human
Excerpt: Cell Lines and Drug Treatments. Human NHL lines RL, Daudi, DB, Raji, Granta 519 and Mec-1 were maintained in RPMI 1640 media. The germinal center related cell line RL is derived from a patient with FL and the t(14,18) gene rearrangement (12), and Daudi and Raji cells are of germinal center derivation. The postgerminal center cell line DB is a DLBCL cell line that has undergone isotype switching (12). […] Granta 519 is an MCL cell line over-expressing cyclin D1 (13) and Mec-1 is a transformed B-CLL/SLL cell line (14). For gene reactivation experiments, cells were cultured in the presence of vehicle (PBS) or DAC (1.0 μM; medium changed every 24 h). After 4 days, cells were either harvested or further treated with TSA (1.0 μM) for 12 h and then harvested. Some cells were also treated with TSA alone for 12 h before harvest. Genomic DNA or total RNA was isolated using Qiagen™ kits (Qiagen, Valencia Calif.) and used for methylation and gene expression analysis, respectively.
Real-time RT-PCR. Total RNA (2 μg) was pre-treated with DNase I to remove potential DNA contaminants and reverse-transcribed in the presence of SuperScript III™ reverse transcriptase (Invitrogen, Carlsbad, Calif.). The generated cDNA was used for PCR amplification with the system described above. The Taqman™ probe and primer sets for real time PCR were purchased from Applied Biosystems (Foster City, Calif.). Separate parallel reactions were run for GAPDH cDNA using a series of diluted cDNA samples as templates to generate standardization curves. The mRNA levels were derived from the standardization curves and expressed as relative changes after normalization to those of GAPDH.

[1] = NHL cell lines, DAC 1.0 μM 4 days, TSA 1.0 μM 12 h, normalized to GAPDH, combination effect in most of the cell lines

Nc1ncn([C@H]2C[C@H](O)[C@@H](CO)O2)c(=O)n1 [DAC, 5-aza-2-deoxycytidine]
CCND1 expression (Granta 519 cell line, DAC alone): down regulated | CYP27B1 gene expression after treatment [1]: weakly to moderately up-regulated | RARβ2 gene expression after treatment [1]: weakly to moderately up-regulated
